Data taken from patent US20170326155A1, “NOVEL PHARM[…] FOR NEUROMUSCULAR CONTRACTURES” (Children's Hospital Medical Center, priority 2016, published 2017).

Tests used:
[1] = test system: shoulder contractures following NBPI; assay: Mouse model of neonatal brachial plexus injury (NBPI), muscle contracture formation; type: in vivo, mice; conditions: for severity of shoulder contractures: single systemic dose following NBPI, 4 weeks post NBPI, compared to controls, preliminary experiment
From the text: Experimental Model: Unilateral brachial plexus injuries are surgically created at 5 days of age in mice. The immediate paralysis mimics that of the human condition, and can be modulated by different surgical techniques of nerve injury. Within 4 weeks after NBPI, muscle contractures form at the shoulder and elbow, replicating the human contractures. (Not shown.) Muscles can be harvested for analysis of growth and cellular behavior. The use of unilateral injuries preserves the contralateral limb as a control, minimizing the number of mice required.

[2] = test system: adult skeletal muscle regeneration; conditions: not tested in pediatric neuromuscular conditions; cited from earlier work

## C[C@]12CC[C@H]3[C@@H](CCC4=CC(=O)CC[C@@H]43)[C@@H]1CC[C@@H]2O [Nandrolone]
[1]; neonatal treatment, preliminary
  contracture severity following NBPI: lessened contracture severity
[1]
  severity of shoulder contractures: lessened the severity of shoulder contractures
[1]; listed as nandrolone
  severity of shoulder contractures: decreased the severity of the shoulder contracture

## CCCCc1nc(Cl)c(CO)n1Cc1ccc(-c2ccccc2-c2nn[nH]n2)cc1 [losartan]
[2]
  adult skeletal muscle regeneration: improve adult skeletal muscle regeneration
